Experimental data published in PubChem BioAssay AID1918935 (Molecular Pharmacology Branch, DTP, NCI, 2023).

Tested on: 324938-238-R-J1-PDC complex spheroid viability
Assay: Anticancer human tumor 324938-238-R-J1-PDC patient-derived bladder carcinoma cell line growth inhibition
Conditions: for IC50: curve of first compound; for viability, T/C: stronger effect = lower value
Procedure, shortened: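 Complex spheroids of tumor cells with HUVEC and human MSCs, exposed to iadademstat combined with other agents. Each agent tested in half-log steps from near clinical Cmax (else 10 microM top), DMSO ≤0.25%.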

[1] = second compound 0.1 µM, first compound 0.0316 µM
[2] = second compound 0.1 µM, first compound 0.1 µM
[3] = second compound 0.1 µM, first compound 0.316 µM
[4] = second compound 0.1 µM, first compound 1 µM
[5] = second compound 0.1 µM, first compound 3.16 µM
[6] = second compound 0.1 µM, first compound 10 µM
[7] = second compound 0.316 µM, first compound 0.0316 µM
[8] = second compound 0.316 µM, first compound 0.1 µM
[9] = second compound 0.316 µM, first compound 0.316 µM
[10] = second compound 0.316 µM, first compound 1 µM
[11] = second compound 0.316 µM, first compound 3.16 µM
[12] = second compound 0.316 µM, first compound 10 µM
[13] = second compound 1 µM, first compound 0.0316 µM
[14] = second compound 1 µM, first compound 0.1 µM
[15] = second compound 1 µM, first compound 0.316 µM
[16] = second compound 1 µM, first compound 1 µM
[17] = second compound 1 µM, first compound 3.16 µM
[18] = second compound 1 µM, first compound 10 µM
[19] = second compound 3.16 µM, first compound 0.0316 µM
[20] = second compound 3.16 µM, first compound 0.1 µM
[21] = second compound 3.16 µM, first compound 0.316 µM
[22] = second compound 3.16 µM, first compound 1 µM
[23] = second compound 3.16 µM, first compound 3.16 µM
[24] = second compound 3.16 µM, first compound 10 µM
[25] = second compound 10 µM, first compound 0.0316 µM
[26] = second compound 10 µM, first compound 0.1 µM
[27] = second compound 10 µM, first compound 0.316 µM
[28] = second compound 10 µM, first compound 1 µM
[29] = second compound 10 µM, first compound 3.16 µM
[30] = second compound 10 µM, first compound 10 µM
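Note: spheroids exposed to agents for 7 days before readout.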

In the case of CC1COCCN1c1cc(C2(S(C)(=N)=O)CC2)nc(-c2ccnc3[nH]ccc23)n1 (stereo not given) + NC1CC1c1ccc(-c2cccc(O)c2)cc1, the IC50 (second compound 0.1 µM) is reported as 507 nM, the IC50 (second compound 0.316 µM) is reported as 301 nM and the IC50 (second compound 1 µM) is reported as 304 nM. It also gave an IC50 (second compound 3.16 µM) of 374 nM, an IC50 (second compound 10 µM) of 294 nM and a viability, T/C [1] of 86.1%. The viability, T/C [2] was 81.3%, the viability, T/C [3] was 58.3% and the viability, T/C [4] was 35.9%. The viability, T/C [5] was 18%, the viability, T/C [6] was 8.83% and the viability, T/C [7] was 80.1%. The viability, T/C [8] was 71%, the viability, T/C [9] was 46.3% and the viability, T/C [10] was 30.8%. It also gave a viability, T/C [11] of 20.5%, a viability, T/C [12] of 8.77% and a viability, T/C [13] of 74.5%. The viability, T/C [14] was 65.3%, the viability, T/C [15] was 47.9% and the viability, T/C [16] was 34.6%. The viability, T/C [17] was 21.8%, the viability, T/C [18] was 9.55% and the viability, T/C [19] was 67.6%. It also gave a viability, T/C [20] of 71.5%, a viability, T/C [21] of 47.8% and a viability, T/C [22] of 35.9%. For the same compound, the viability, T/C [23] was 22.2%, the viability, T/C [24] was 10.4% and the viability, T/C [25] was 75%. It also gave a viability, T/C [26] of 66.1%, a viability, T/C [27] of 45.7% and a viability, T/C [28] of 36.4%. For the same compound, the viability, T/C [29] was 21.2% and the viability, T/C [30] was 12.2%.
O=C(c1cc(Cc2n[nH]c(=O)c3ccccc23)ccc1F)N1CCN(C(=O)C2CC2)CC1 + NC1CC1c1ccc(-c2cccc(O)c2)cc1 gave an IC50 (second compound 0.1 µM) of 2150 nM, an IC50 (second compound 0.316 µM) of 1980 nM and an IC50 (second compound 1 µM) of 917 nM. The IC50 (second compound 3.16 µM) was 1500 nM, the IC50 (second compound 10 µM) was 1220 nM and the viability, T/C [1] was 89.8%. It also gave a viability, T/C [2] of 80.6%, a viability, T/C [3] of 72.4% and a viability, T/C [4] of 61.4%. It also gave a viability, T/C [5] of 43.3%, a viability, T/C [6] of 33.9% and a viability, T/C [7] of 87.8%. It also gave a viability, T/C [8] of 78.5%, a viability, T/C [9] of 77.1% and a viability, T/C [10] of 62.7%. The viability, T/C [11] was 40.4%, the viability, T/C [12] was 36.3% and the viability, T/C [13] was 74.2%. It also gave a viability, T/C [14] of 74.2%, a viability, T/C [15] of 64.4% and a viability, T/C [16] of 48%. It also gave a viability, T/C [17] of 40.3%, a viability, T/C [18] of 34.1% and a viability, T/C [19] of 68.2%. The viability, T/C [20] was 74%, the viability, T/C [21] was 77.7% and the viability, T/C [22] was 56%. The viability, T/C [23] was 41.3%, the viability, T/C [24] was 36.2% and the viability, T/C [25] was 73.1%. The viability, T/C [26] was 66.7%, the viability, T/C [27] was 66.3% and the viability, T/C [28] was 49.9%. The viability, T/C [29] was 43.8% and the viability, T/C [30] was 38.2%.
Work on Nc1ncn(C2CC(O)C(CO)S2)c(=O)n1 (stereo not given) + NC1CC1c1ccc(-c2cccc(O)c2)cc1 yielded an IC50 (second compound 0.1 µM) of 16.4 nM, an IC50 (second compound 0.316 µM) of 13.3 nM and an IC50 (second compound 1 µM) of 8.37 nM. It also gave an IC50 (second compound 3.16 µM) of 14.4 nM, an IC50 (second compound 10 µM) of 9.28 nM and a viability, T/C (second compound 0.1 µM, first compound 0.000949 µM) of 84.5%. It also gave a viability, T/C (second compound 0.1 µM, first compound 0.003 µM) of 87.4%, a viability, T/C (second compound 0.1 µM, first compound 0.00949 µM) of 58.1% and a viability, T/C (second compound 0.1 µM, first compound 0.03 µM) of 37.9%. For the same compound, the viability, T/C (second compound 0.1 µM, first compound 0.0949 µM) was 26.6%, the viability, T/C (second compound 0.1 µM, first compound 0.3 µM) was 16.9% and the viability, T/C (second compound 0.316 µM, first compound 0.000949 µM) was 78.1%. It also gave a viability, T/C (second compound 0.316 µM, first compound 0.003 µM) of 70.5%, a viability, T/C (second compound 0.316 µM, first compound 0.00949 µM) of 54% and a viability, T/C (second compound 0.316 µM, first compound 0.03 µM) of 36.9%. It also gave a viability, T/C (second compound 0.316 µM, first compound 0.0949 µM) of 29%, a viability, T/C (second compound 0.316 µM, first compound 0.3 µM) of 16% and a viability, T/C (second compound 1 µM, first compound 0.000949 µM) of 63.4%. The viability, T/C (second compound 1 µM, first compound 0.003 µM) was 59.2%, the viability, T/C (second compound 1 µM, first compound 0.00949 µM) was 48.4% and the viability, T/C (second compound 1 µM, first compound 0.03 µM) was 38.1%. The viability, T/C (second compound 1 µM, first compound 0.0949 µM) was 28%, the viability, T/C (second compound 1 µM, first compound 0.3 µM) was 16.8% and the viability, T/C (second compound 3.16 µM, first compound 0.000949 µM) was 67.2%. The viability, T/C (second compound 3.16 µM, first compound 0.003 µM) was 62%, the viability, T/C (second compound 3.16 µM, first compound 0.00949 µM) was 55.2% and the viability, T/C (second compound 3.16 µM, first compound 0.03 µM) was 41.1%. It also gave a viability, T/C (second compound 3.16 µM, first compound 0.0949 µM) of 32.2%, a viability, T/C (second compound 3.16 µM, first compound 0.3 µM) of 17.5% and a viability, T/C (second compound 10 µM, first compound 0.000949 µM) of 62.9%. For the same compound, the viability, T/C (second compound 10 µM, first compound 0.003 µM) was 57.5%, the viability, T/C (second compound 10 µM, first compound 0.00949 µM) was 48.8% and the viability, T/C (second compound 10 µM, first compound 0.03 µM) was 42.3%. It also gave a viability, T/C (second compound 10 µM, first compound 0.0949 µM) of 29.1% and a viability, T/C (second compound 10 µM, first compound 0.3 µM) of 25%.
